# Measurements taken from US4521335A, “Aglycone and pseudo-aglycones of the AAD 216 antibiotics” (SmithKline Beckman Corporation, priority 1984, dated 1985).
# Tests used:
# [1] = test system: Staph. aureus SK & F 2613; assay: MIC, standard microtiter assay; assay type: cell-based; details: Staphylococcus aureus
# [2] = test system: C. perfringens ATCC 19408; assay: microbe, parasite or virus in culture; assay type: cell-based; details: Clostridium perfringens, ATCC19408
# [3] = test system: Staph. aureus SK & F 2777; assay: MIC, standard microtiter assay; assay type: cell-based; details: Staphylococcus aureus
# [4] = test system: Bacteroides Fragilis ATCC; assay: MIC, standard microtiter assay; assay type: cell-based
# [5] = test system: inoculum (rumen cannula filtrate); assay: rumen in vitro model, growth promotant activity; details: experiment III; for GLU (% Control): glucose; for LYS (% Control): lysine; for Propionate % (% Control): propionate as percentage of total VFA; for VFA (% Control): total volatile fatty acids
# [6] = test system: Staph. aureus SK & F 2595; assay: MIC, standard microtiter assay; assay type: cell-based; details: Staphylococcus aureus
# B. fragilis H145 = assay: MIC, standard microtiter assay; assay type: cell-based; details: Bacteroides fragilis
# [7] = test system: Staph. aureus SK & F 2612; assay: MIC, standard microtiter assay; assay type: cell-based; details: Staphylococcus aureus
# C. difficile SK & F 3091 = assay: MIC, standard microtiter assay; assay type: cell-based; details: Clostridioides difficile
# C. difficile SK & F 3098 = assay: MIC, standard microtiter assay; assay type: cell-based; details: Clostridioides difficile
# [8] = test system: Staph. aureus SK & F 2597; assay: MIC, standard microtiter assay; assay type: cell-based; details: Staphylococcus aureus
# C. difficile SK & F 3141 = assay: MIC, standard microtiter assay; assay type: cell-based; details: Clostridioides difficile
# C. difficile SK & F 3065 = assay: MIC, standard microtiter assay; assay type: cell-based; details: Clostridioides difficile
# Staph. aureus HH127 = assay: MIC, standard microtiter assay; assay type: cell-based
# B. thetaiotomicron H-145 = assay: MIC, standard microtiter assay; assay type: cell-based
# B. loeochis SK & F 3087 = assay: MIC, standard microtiter assay; assay type: cell-based; details: Table D, Anaerobes
# Text: The AAD 216 aglycone, the AAD 216 pseudo-aglycone, the AAD 216A pseudo-aglycone, the AAD 216B pseudo-aglycone and the AAD 216C pseudo-aglycone were neutralized with sodium bicarbonate prior to testing.
# [9] = test system: Staph. aureus SK & F 2666; assay: MIC, standard microtiter assay; assay type: cell-based; details: Staphylococcus aureus
# C. difficile SK & F 3096 = assay: MIC, standard microtiter assay; assay type: cell-based; details: Clostridioides difficile
# [10] = test system: Salmonella gallinarum BC-595; assay: microbe, parasite or virus in culture; assay type: cell-based; details: Salmonella enterica
# [11] = test system: Staph. aureus SK & F 209P-mutant; assay: microbe, parasite or virus in culture; assay type: cell-based; details: Staphylococcus aureus
# [12] = test system: Staph. aureus SK & F 2682; assay: MIC, standard microtiter assay; assay type: cell-based; details: Staphylococcus aureus
# Staph. aureus HH 127 = assay: in vivo activity against intraperitoneal infections in mice; design: species or system mice infected with Staph. aureus; details: Staphylococcus aureus, HH127, sc
# [13] = test system: Clostridium difficile SK & F 3062; assay: MIC, standard microtiter assay; assay type: cell-based; details: Clostridioides difficile
# [14] = test system: Bacteroides fragilis ATCC 25285; assay: MIC, standard microtiter assay; assay type: cell-based; details: ATCC25285
# [15] = test system: E. coli 12140 (SK & F 809); assay: MIC, standard microtiter assay; assay type: cell-based; details: Escherichia coli
# [16] = test system: Staph. aureus SK & F 2620; assay: MIC, standard microtiter assay; assay type: cell-based; details: Staphylococcus aureus
# [17] = test system: Serratia marcesens ATCC 13880; assay: MIC, standard microtiter assay; assay type: cell-based; details: ATCC13880
# [18] = test system: Proteus mirabilis SK & F 444; assay: MIC, standard microtiter assay; assay type: cell-based
# [19] = test system: Enterobacter cloacae HH31254; assay: MIC, standard microtiter assay; assay type: cell-based
# [20] = test system: Staph. aureus SK & F 1761; assay: MIC, standard microtiter assay; assay type: cell-based; details: Staphylococcus aureus
# [21] = test system: Staph. aureus SK & F 2592; assay: MIC, standard microtiter assay; assay type: cell-based; details: Staphylococcus aureus
# [22] = test system: Strep. faecalis SK & F 657; assay: MIC, standard microtiter assay; assay type: cell-based; details: Enterococcus faecalis
# C. difficile SK & F 3092 = assay: MIC, standard microtiter assay; assay type: cell-based; details: Clostridioides difficile
# [23] = test system: Staph. aureus SK & F 2589; assay: MIC, standard microtiter assay; assay type: cell-based; details: Staphylococcus aureus
# [24] = test system: Staph. aureus SK & F 674-P6-mutant; assay: microbe, parasite or virus in culture; assay type: cell-based; details: Staphylococcus aureus
# Staph. aureus SK & F 910 = assay: MIC, standard microtiter assay; assay type: cell-based
# [25] = test system: Staph. aureus SK & F 2593; assay: MIC, standard microtiter assay; assay type: cell-based; details: Staphylococcus aureus
# [26] = test system: B. thetaiotamicron SK & F 3089; assay: MIC, standard microtiter assay; assay type: cell-based
# Providencia SK & F 276 = assay: MIC, standard microtiter assay; assay type: cell-based
# [27] = test system: k. pneumoniae 4200 (SK & F 798); assay: MIC, standard microtiter assay; assay type: cell-based; details: Klebsiella pneumoniae
compound,measurement,setting,value
"CN[C@H](CC(C)C)C(=O)N[C@H]1C(=O)N[C@@H](CC(N)=O)C(=O)N[C@H]2C(=O)N[C@H]3C(=O)N[C@H](C(=O)N[C@H](C(=O)O)c4cc(O)cc(O)c4-c4cc3ccc4O)[C@H](O)c3ccc(c(Cl)c3)Oc3cc2cc(c3O[C@@H]2O[C@H](CO)[C@@H](O)[C@H](O)[C@H]2O[C@H]2C[C@](C)(N)[C@H](O)[C@H](C)O2)Oc2ccc(cc2Cl)[C@H]1O [Vancomycin, vancomycin]",MIC,[1],1.6 mg/L
same,MIC,[2],1 mg/L
same,MIC,[3],0.8 mg/L
same,MIC,[4],> 32 mg/L
same,GLU (% Control),[5]; 0.5 ppm,17 % Control
same,LYS (% Control),[5]; 0.5 ppm,83 % Control
same,Propionate % (% Control),[5]; 0.5 ppm,105 % Control
same,VFA (% Control),[5]; 0.5 ppm,97 % Control
same,GLU (% Control),[5]; 5.0 ppm,165 % Control
same,LYS (% Control),[5]; 5.0 ppm,85 % Control
same,Propionate % (% Control),[5]; 5.0 ppm,130 % Control
same,VFA (% Control),[5]; 5.0 ppm,108 % Control
same,GLU (% Control),[5]; 50.0 ppm,189 % Control
same,LYS (% Control),[5]; 50.0 ppm,97 % Control
same,Propionate % (% Control),[5]; 50.0 ppm,127 % Control
same,VFA (% Control),[5]; 50.0 ppm,107 % Control
same,MIC,[6],1.6 mg/L
same,MIC,B. fragilis H145,32 mg/L
same,MIC,[7],1.6 mg/L
same,MIC,C. difficile SK & F 3091,2 mg/L
same,MIC,C. difficile SK & F 3098,2 mg/L
same,MIC,[8],3.1 mg/L
same,MIC,C. difficile SK & F 3141,1 mg/L
same,MIC,"C. difficile SK & F 3065; Table D, Anaerobes",4 mg/L
same,MIC,C. difficile SK & F 3065; Table F,1 mg/L
same,MIC,"Staph. aureus HH127; Staphylococcus aureus, HH127",1.6 mg/L
same,MIC,"Staph. aureus HH127; Table A, Staph. aureus HH127",1.6 mg/L
same,MIC,"Staph. aureus HH127; Table E, Staph. aureus HH127",1.6 mg/L
same,MIC,B. thetaiotomicron H-145,> 32 mg/L
same,MIC,B. loeochis SK & F 3087,32 mg/L
same,MIC,[9],1.6 mg/L
same,MIC,C. difficile SK & F 3096,2 mg/L
same,MIC,[10],> 100 mg/L
same,MIC,[11],100 mg/L
same,MIC,[12],1.6 mg/L
same,ED50,"Staph. aureus HH 127; i.p. infection 46.8 LD50's Staph. aureus HH 127, s.c. 1 and 5 hours post infection",1.56 mg/kg
same,ED50,"Staph. aureus HH 127; second test, similar protocol, s.c.",1.92 mg/kg
same,MIC,"[13]; Table D, Anaerobes, Clostridium difficile SK & F 3062",2 mg/L
same,MIC,"[13]; Table F, C. difficile SK & F 3062",0.5 mg/L
same,MIC,[14],32 mg/L
same,MIC,[15],100 mg/L
same,MIC,[16],3.1 mg/L
same,MIC,[17],> 100 mg/L
same,MIC,[18],100 mg/L
same,MIC,[19],> 100 mg/L
same,MIC,[20],1.6 mg/L
same,MIC,[21],3.1 mg/L
same,MIC,[22],3.1 mg/L
same,MIC,"C. difficile SK & F 3092; Table D, Anaerobes",2 mg/L
same,MIC,C. difficile SK & F 3092; Table F,0.5 mg/L
same,MIC,[23],1.6 mg/L
same,MIC,[24],100 mg/L
same,MIC,Staph. aureus SK & F 910; Staphylococcus aureus,1.6 mg/L
same,MIC,"Staph. aureus SK & F 910; Table A, Staph. aureus SK & F 910",1.6 mg/L
same,MIC,"Staph. aureus SK & F 910; Table E, Staph. aureus SK & F 910",1.6 mg/L
same,MIC,[25],1.6 mg/L
same,MIC,[26],32 mg/L
same,MIC,Providencia SK & F 276,> 100 mg/L
same,MIC,[27],> 100 mg/L
